Data reported in US7202280B2, “Methods for the treatment and prevention of pancreatitis and for induction of liver regeneration” (priority 2002, dated 2007).
Marks after values point to notes of the source that are not given here.

Key:
Assay type in all cases: in vivo, rat
[1] = tested on: syngenic and transgenic rats; experiment: Hepatic SSAT activity and polyamine pools after partial hepatectomy
Text: FIGS. 4a–4d. Hepatic polyamine pools in syngenic and transgenic rats after partial hepatectomy and methylspermidine. […] Three to five animals in each group. Me-spd, methylspermidine.
The production of transgenic Wistar rats (UKUR30) and mice (UKU181) harboring metallothionein-SSAT fusion gene (Suppola, S., Pietilä, M., Parkkinen, J. J., Korhonen, V. P., Alhonen, L., Halmekytö, M., Porter, C. W., and Jänne, J. (1999) Biochem. J. 338, 311–316) has been described earlier (Alhonen, L., Parkkinen, J. J., Keinänen, T., Sinervirta, R., Herzig, K. H., and Jänne, J. (2000) Proc. Natl. Acad. Sci. U.S.A. 97, 8290–8295; Lukkarinen, J., Gröhn, O., Sinervirta, R., Järvinen, A., Kauppinen, R. A., Jänne, J., and Alhonen, L. (1997) Stroke 28, 639–645). Partial hepatectomy was carried out according to the original method of Higgins and Anderson (Higgins, G. H., and Anderson, R. M. (1931) Arch. Pathol. 12, 186–202). Treatments before partial hepatectomy and the determination of DNA synthesis were carried out as in (Räsänen, T. L., Alhonen, L., Sinervirta, R., Keinänen, T., Herzig, K. H., Suppola, S., Khomutov, A. R., Vepsäläinen, J., and Jänne, J. (2002) J. Biol. Chem. 277, 39867–39872). […] The animals were sacrificed 24 h after the second MDL72527 injection and liver pieces were frozen in liquid nitrogen, homogenized in buffer (25 mM Tris-HCl pH 7.4, 0.1 mM EDTA, 1 mM DTT). An aliquot of the homogenates was used for the polyamine assays. The homogenates were centrifuged (at 13 000×g, for 30 min, at 4° C.) and the supernatants were used for the enzyme activity assays. The Institutional Animal Care and Use Committee of the University of Kuopio and by the Provincial Government approved animal experiments.
FIG. 4 depicts polyamine concentrations in syngenic and transgenic rats at 24 h after partial hepatectomy. […] This in all likelihood reflected the enhanced SSAT activity. […] In transgenic animals, the low spermidine pool was further decreased in response to the operation (FIG. 4c).
Liver regeneration could be restored by a prior administration of α-methylspermidine (Räsänen, T. L., Alhonen, L., Sinervirta, R., Keinänen, T., Herzig, K. H., Suppola, S., Khomutov, A. R., Vepsäläinen, J., and Jänne, J. (2002) J. Biol. Chem. 277, 39867–39872). FIG. 10. depicts thymidine incorporation in livers of transgenic rats before and 24 h after partial hepatectomy. […] Table 3 lists the liver pools of polyamines and their analogues before and after partial hepatectomy. […] The analogues were readily accumulated in the livers.

[2] = tested on: rats; experiment: Toxicity of spermine derivatives in rats (deaths); conditions: 50 mg/kg twice/24 h
Text: It is likely to be the case with the methylated analogues as well.

[3] = tested on: syngenic and transgenic rats; experiment: Pancreatic SSAT activity and polyamine pools after zinc and methylspermidine
Protocol: FIGS. 1a-1d. Pancreatic polyamine pools in syngenic and transgenic rats after zinc and methylspermidine. […] Three to five animals in each group. Me-spd, methylspermidine. The production of transgenic Wistar rats (UKUR30) and mice (UKU181) harboring metallothionein-SSAT fusion gene (Suppola, […]., Porter, C. W., and Jänne, J. (1999) Biochem. […] (2000) Proc. Natl. Acad. Sci. U.S.A. 97, 8290-8295; Lukkarinen, […]., and Alhonen, L. (1997) Stroke 28, 639-645). Partial hepatectomy was carried out according to the original method of Higgins and Anderson (Higgins, G. H., and Anderson, R. M. (1931) Arch. Pathol. 12, 186-202). Treatments before partial hepatectomy and the determination of DNA synthesis were carried out as in ([…]., Suppola, […]., and […]. Biol. Chem. 277, 39867-39872). Transgenic 10 weeks old male rats were injected twice with MDL72527 (50 mg/kg i.p.) at 16-h interval to inactivate PAO according to (Bolkenius, F. N., Bey, P., and Seiler, N. (1985) Biochim. Biophys. […] An aliquot of the homogenates was used for the polyamine assays. The homogenates were centrifuged (at 13 000×g, for 30 min, at 4° C.) and the supernatants were used for the enzyme activity assays. The Institutional Animal Care and Use Committee of the University of Kuopio and by the Provincial Government approved animal experiments. […] Merck (Darmstadt, Germany). […] The changes in pancreatic polyamine pools in response to zinc and methylspermidine are depicted in FIG. 1. […] The various treatments only marginally altered pancreatic putrescine pools (FIG. 1a). […] FIG. 1d depicts the accumulation of the analogue in the pancreas after a single dose or two doses.

[4] = tested on: rats with arginine-induced pancreatitis; experiment: Arginine-induced pancreatitis
Protocol: FIG. 6 Plasma α-amylase activity in rats with arginine-induced pancreatitis after methylspermidine. The animals received […]-500 mg/kg) 24 h before sacrifice with or without methylspermidine (50 mg/kg) either as a single dose 4 h before arginine or as two doses 20 h and 4 h before arginine. Three to five animals in each group. Arg, Arginine. Me-Spd, methylspermidine. Administration of large quantities of arginine is known to cause acute, necrotizing pancreatitis in rats.

[5] = transgenic rats, 24 h regenerating liver, 25 mg/kg 20 and 4 h before operation
[6] = transgenic rats, 24 h regenerating liver, 5 mg/kg 20 and 4 h before operation

In the case of `CC(N)CCNCCCCNCCC(C)N` (stereo not drawn) [bis-α-methylspermine, 1,12-dimethylspermine], the “Me2-Spm (liver)” value [1, 5] is reported as 381 ± 124 pmoles/mg tissue wet weight, the “Me-Spd (liver)” value [1, 5] is reported as 154 ± 6 pmoles/mg tissue wet weight and the “Put (liver)” value [1, 5] is reported as 4400 ± 275^a pmoles/mg tissue wet weight. The “Spd (liver)” value [1, 5] was 266 ± 55^a pmoles/mg tissue wet weight, the “Spm (liver)” value [1, 5] was 6 ± 8^a pmoles/mg tissue wet weight and the deaths [2] was “a number of rats died”.

For `CC(N)CCNCCCCN` (stereo not drawn) [α-methylspermidine, 1-methylspermidine], the “accumulation of the analogue in the pancreas” value ([3]; single dose or two doses of 50 mg/kg) was “effectively accumulated in the pancreas apparently with no further metabolism”, the “SSAT activity, Pancreas” value ([3]; syngenic rats, zinc 10 mg/kg with methylspermidine 50 mg/kg) was “did not influence SSAT activity” and the “SSAT activity, Pancreas” value ([3]; transgenic rats, analogue with zinc vs zinc alone) was “only slightly increased SSAT activity”. The Pancreatic spermidine pool ([3]; transgenic rats, zinc 10 mg/kg) was “little effect on zinc-induced depletion of spermidine”, the “hepatic spermidine and spermine concentrations” value ([1]; 24 h after partial hepatectomy, 50 mg/kg 3 h before) was “little effect on hepatic spermidine and spermine concentrations” and the “accumulation of the analogue in liver” value ([1]; normal and transgenic rats, 50 mg/kg 3 h before partial hepatectomy) was “effectively accumulated in normal and transgenic liver”. For the same molecule, the hepatic putrescine pool ([1]; transgenic rats, 24 h after partial hepatectomy, 50 mg/kg 3 h before) was “strikingly increased in response to the analogue”, the “Me-Spd (liver)” value [1, 6] was 462 ± 41 pmoles/mg tissue wet weight and the “Put (liver)” value [1, 6] was 4540 ± 690^a pmoles/mg tissue wet weight. For the same molecule, the “Spd (liver)” value [1, 6] was 183 ± 47^a pmoles/mg tissue wet weight, the “Spm (liver)” value [1, 6] was 18 ± 5^a pmoles/mg tissue wet weight and the “Me-Spd (liver)” value [1, 5] was 864 ± 166 pmoles/mg tissue wet weight. For the same molecule, the “Put (liver)” value [1, 5] was 3570 ± 596^a pmoles/mg tissue wet weight, the “Spd (liver)” value [1, 5] was 281 ± 107^a pmoles/mg tissue wet weight and the “Spm (liver)” value [1, 5] was 40 ± 24^a pmoles/mg tissue wet weight. For the same molecule, the “hepatic SSAT activity” value ([1]; transgenic rats, single dose 3 h prior to partial hepatectomy, 24 h postoperatively) was 7520±3000 pmol/mg/10 min, the plasma amylase ([4]; arginine 250–500 mg/kg, single dose 50 mg/kg) was “significantly reduced the pancreatitis-associated increase in plasma amylase” and the plasma amylase levels ([4]; arginine 250–500 mg/kg, two repeated doses) was “fully normalized”. For the same molecule, the “histopathological changes in the pancreas” value ([4]; arginine-induced pancreatitis) was “prevented the histopathological changes”.

For `CC(N)CCNCCCCNCCCN` (stereo not drawn) [α-methylspermine, 1-methylspermine], the deaths [2] was “a number of rats died”.
